From the NIST ThermoML archive (doi:10.1016/j.jct.2013.09.026)
± gives the expanded uncertainty stated by the source.

Settings: 298.15 K; 101.33 kPa; Liquid; Vibrating tube method

SMILES | mass density [kg/m3]
CCN(CC)CC [triethylamine] | 722.814 ± 0.19
CCC(C)=O [butanone] | 799.969 ± 0.17
CCCO [propan-1-ol] | 799.656 ± 0.17
